Experimental data published in EP3064205A1, “Therapeutic use of isomeric forms of 2-(4-chlorophenyl)quinolin-4-yl)(piperidin-2-yl)methanol” (Glionova AB, priority 2015, dated 2016).
Where two headings read alike, the source gives them in different places.

Legend:
Test in all cases: 3D clonogenic assay (PDX)
Format in all cases: cell-based, human
[1] = test system: CXF 742; settings: CXF 742, Colorectal; for IC50: Homo sapiens
How it was run: (§1)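 Tumor xenografts are dissociated with a collagenase/DNase/hyaluronidase/dispase cocktail, and the cells are frozen, then thawed and embedded in 0.4% agar over a 0.75% agar base. Compound is added at day 1 and left on continuously for 8–13 days. IC50 is taken as the curve inflection point or as the concentration at T/C = 50%.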

[2] = test system: CXF 975; settings: CXF 975, Colorectal; for IC50: Homo sapiens
How it was run: as §1

[3] = test system: LXFA 629; settings: LXFA 629, Lung Adeno; for IC50: Homo sapiens
How it was run: as §1

[4] = test system: HNXF 1842; settings: HNXF 1842, Head and Neck; for IC50: Homo sapiens
How it was run: as §1

[5] = test system: LXFE 397; settings: LXFE 397, Lung Epidermoid; for IC50: Homo sapiens
How it was run: as §1

[6] = test system: MEXF 1792; settings: MEXF 1792, Melanoma; for IC50: Homo sapiens
How it was run: as §1

[7] = test system: HNXF 536; settings: HNXF 536, Head and Neck; for IC50: Homo sapiens
How it was run: as §1

[8] = test system: PAXF 1900; settings: PAXF 1900, Pancreas; for IC50: Homo sapiens
How it was run: as §1

[9] = test system: LXFA 1647; settings: LXFA 1647, Lung Adeno; for IC50: Homo sapiens
How it was run: as §1

[10] = test system: GXA 3023; settings: GXA 3023, Asian Gastric; for IC50: Homo sapiens
How it was run: as §1

[11] = test system: OVXF 1353; settings: OVXF 1353, Ovarian; for IC50: Homo sapiens
How it was run: as §1

[12] = test system: PAXF 2045; settings: PAXF 2045, Pancreas; for IC50: Homo sapiens
How it was run: as §1

For O[C@H](c1cc(-c2ccc(Cl)cc2)nc2ccccc12)[C@@H]1CCCCN1 [S1, (R)-(2-(4-chlorophenyl)quinolin-4-yl)((S)-piperidin-2-yl)methanol], the “b (bottom plateau of concentration-effect curve)” value [1] was 0, the “t (top plateau of concentration-effect curve)” value [1] was 100 and the IC50 ([1]; read-out: abs. IC50) was 41.3 µM. The IC50 ([1]; read-out: rel. IC50) was 41.3 µM, the “b (bottom plateau of concentration-effect curve)” value [2] was 19 and the “t (top plateau of concentration-effect curve)” value [2] was 105. The IC50 ([2]; read-out: abs. IC50) was 8.75 µM, the IC50 ([2]; read-out: rel. IC50) was 8.62 µM and the IC50 ([3]; read-out: abs. IC50) was 9.09 µM. For the same compound, the IC50 ([3]; read-out: rel. IC50) was 8.85 µM, the “b (bottom plateau of concentration-effect curve)” value [3] was 26 and the “t (top plateau of concentration-effect curve)” value [3] was 108. For the same compound, the “b (bottom plateau of concentration-effect curve)” value [4] was 15, the “t (top plateau of concentration-effect curve)” value [4] was 77 and the IC50 ([4]; read-out: abs. IC50) was 5.4 µM. The IC50 ([4]; read-out: rel. IC50) was 5.53 µM, the IC50 ([5]; read-out: abs. IC50) was 5.14 µM and the IC50 ([5]; read-out: rel. IC50) was 4.77 µM. For the same compound, the “b (bottom plateau of concentration-effect curve)” value [5] was 35, the “t (top plateau of concentration-effect curve)” value [5] was 100 and the IC50 ([6]; read-out: abs. IC50) was 6.19 µM. For the same compound, the IC50 ([6]; read-out: rel. IC50) was 6.15 µM, the “b (bottom plateau of concentration-effect curve)” value [6] was 5 and the “t (top plateau of concentration-effect curve)” value [6] was 99. For the same compound, the “b (bottom plateau of concentration-effect curve)” value [7] was 14, the “t (top plateau of concentration-effect curve)” value [7] was 99 and the IC50 ([7]; read-out: abs. IC50) was 8.21 µM. For the same compound, the IC50 ([7]; read-out: rel. IC50) was 7.47 µM, the IC50 ([8]; read-out: abs. IC50) was 13.2 µM and the IC50 ([8]; read-out: rel. IC50) was 12.2 µM. For the same compound, the “b (bottom plateau of concentration-effect curve)” value [8] was 33, the “t (top plateau of concentration-effect curve)” value [8] was 114 and the IC50 ([9]; read-out: abs. IC50) was 12.1 µM. The IC50 ([9]; read-out: rel. IC50) was 11.9 µM, the “b (bottom plateau of concentration-effect curve)” value [9] was 13 and the “t (top plateau of concentration-effect curve)” value [9] was 98. For the same compound, the “b (bottom plateau of concentration-effect curve)” value [10] was 30, the “t (top plateau of concentration-effect curve)” value [10] was 90 and the IC50 ([10]; read-out: abs. IC50) was 5.26 µM. It also gave an IC50 ([10]; read-out: rel. IC50) of 5.02 µM, an IC50 ([11]; read-out: abs. IC50) of 4.91 µM and an IC50 ([11]; read-out: rel. IC50) of 4.72 µM. The “b (bottom plateau of concentration-effect curve)” value [11] was 23, the “t (top plateau of concentration-effect curve)” value [11] was 101 and the IC50 ([12]; read-out: abs. IC50) was 8.14 µM. The IC50 ([12]; read-out: rel. IC50) was 7.03 µM, the “b (bottom plateau of concentration-effect curve)” value [12] was 22 and the “t (top plateau of concentration-effect curve)” value [12] was 95.
